Patent US7141586B2, “Nicotinamide derivatives useful as PDE4 inhibitors” (Pfizer Inc., priority 2003, dated 2006)

System: TNFα release from human peripheral blood mononuclear cells
Test: Inhibition of LPS-stimulated TNFα release from human peripheral blood mononuclear cells (TNFα screen)
Type: cell-based
Conditions: human PBMC stimulated with lipopolysaccharide, 18 hours incubation, TNFα in supernatant by ELISA
Description: Venous blood is collected from healthy volunteers and the mononuclear cells purified by centrifugation through Histopaque (Ficoll) cushions. TNFα production from these cells is stimulated by addition of lipopolysaccharide. After 18 hours incubation in the presence of LPS, the cell supernatant is removed and the concentration of TNFα in the supernatant determined by ELISA. Addition of PDE4 inhibitors reduces the amount of TNFα produced. An IC50 is determined which is equal to the concentration of compound that gives 50% inhibition of TNFα production as compared to the LPS stimulated control wells.

Compound | IC50 [nM]
CSc1cccc(Oc2ncc(F)cc2C(=O)N[C@H]2CC[C@@H](NC(=O)c3cc(C)ccc3O)CC2)c1 [Example 1, Syn-5-Fluoro N-[4-(2-hydroxy-5-methyl-benzoylamino)-cyclohexyl]-2-(3-methylsulfanyl-phenoxy)-nicotinamide] | 0.4
Syn-5-fluoro-2-(3-methylsulfanyl-phenoxy)-N-{4-[(2,3-dimethyl-1H-pyrazole-5-carbonyl)-amino]-cyclohexyl}-nicotinamide [Example 3] | 0.37
Syn-5-fluoro-N-[4-(2-hydroxy-4-methyl-benzoylamino)-cyclohexyl]-2-(3-methylsulfanyl-phenoxy)-nicotinamide [Example 10] | 0.05
Syn-5-fluoro-N-[4-(2-hydroxy-benzoylamino)-cyclohexyl]-2-(3-methylsulfanyl-phenoxy)-nicotinamide [Example 11] | 0.05
Syn-5-fluoro-N-[4-(4-hydroxy-2-methoxy-benzoylamino)-cyclohexyl]-2-(3-methylsulfanyl-phenoxy)-nicotinamide [Example 22] | 0.07
Syn-5-fluoro-N-[4-(5-chloro-2-hydroxy-benzoylamino)-cyclohexyl]-2-(3-methylsulfanyl-phenoxy)-nicotinamide [Example 5] | 0.15
Syn-5-fluoro-N-{4-[(1H-imidazole-5-carbonyl)-amino]-cyclohexyl}-2-(3-methylsulfanyl-phenoxy)-nicotinamide [Example 18] | 0.6
Syn-5-fluoro-N-{4-[(4-methyl-1H-imidazole-2-carbonyl)-amino]-cyclohexyl}-2-(3-methylsulfanyl-phenoxy)-nicotinamide [Example 4] | 0.15

System: not given
Test: not given
Conditions: not given

Compound | melting point [°C]
CSc1cccc(Oc2ncc(F)cc2C(=O)N[C@H]2CCCC[C@H]2O)c1 (relative stereo) [Example 31, 5-Fluoro-N-[cis-2-hydroxy-cyclohexyl]-2-(3-methylsulfanyl-phenoxy)-nicotinamide] | 99 to 101
CSc1cccc(Oc2ncc(F)cc2C(=O)N[C@H]2CCCC[C@@H]2CO)c1 (relative stereo) [Example 56, 5-Fluoro-N-[trans-2-hydroxymethyl-cyclohexyl]-2-(3-methylsulfanyl-phenoxy)-nicotinamide] | 128 to 129
CSc1cccc(Oc2ncc(F)cc2C(=O)N[C@H]2CC[C@@H](CO)CC2)c1 [Example 60, 5-Fluoro-N-(cis-4-hydroxymethyl-cyclohexyl)-2-(3-methylsulfanyl-phenoxy)-nicotinamide] | 123 to 126
